Assay: in vitro permeation (diffusion) study across hairless mouse skin

C[C@]12CCC(=O)C=C1CC[C@@H]1[C@@H]2[C@@H](O)C[C@@]2(C)[C@H]1CC[C@]2(O)C(=O)CO [Hydrocortisone, hydrocortisone]
Avg. Flux (formulation EtOH, saturated with the drug except for verapamil, average of the flux values at each sampling time within 24 hours): 0.64 µg/cm^2/h | Avg. Flux (formulation EtOH:Mig 20:80, saturated with the drug except for verapamil, average within 24 hours): 10.24 µg/cm^2/h | Avg. Flux (formulation Mig (Miglyol 840), saturated with the drug except for verapamil, average within 24 hours): 1.49 µg/cm^2/h

Reference: patent publication EP0499662A1, “Compositions with enhanced penetration” (WARNER-LAMBERT COMPANY, priority 1991, dated 1992)
